Read-outs that look alike come from different tables or passages of the source. Marks after values point to notes of the source that are not given here.
What was measured:
Single IV dose plasma PK [1] = format: in vivo, monkey
Method: (§1) Single intravenous (IV) dose PK was conducted in mice (two strains), rats, monkeys, and dogs at a dose of 1 mg/kg in 70% PEG400 (PEG400/water 70:30) by bolus injection. The time course for plasma sample was optimized to fully characterize the disposition profile in each species. PK analysis was by non-compartmental method.

Single IV dose plasma PK [2] = format: in vivo, mouse
Method: as §1

[3] = test system: T cells derived from healthy donors; assay: CyTOF analysis of T cells stimulated with CD3/28; format: cell-based, human
Description: After fixation and barcoding, samples were pooled per donor and stained using a panel of 32 metal-labelled antibodies for identification of phenotype and function of immune cell populations and acquired on a CyTOF® C5 system. After debarcoding and normalization, cell populations were either manually gated or clustered by spanning-tree progression of density-normalized events (SPADE) analysis using Cytobank® software.
These observations are consistent with the fluorescence-activated cell sorting (FACS) analysis data.

[4] = Serum and tumor levels after multiple oral doses in male OCI-LY3 tumor-bearing NSG mice; format: in vivo; details: mean (SD); for concentration at 7 h / concentration at 12 h / concentration at 4 h / concentration at 24 h / Kp at 12 h / Kp at 24 h: male, NSG, mouse; for concentration at 7 h: 7 h post dose; for Kp at 12 h: Day 5, 12 h post dose, read-out: Tumor: serum ratio; for Kp at 24 h: read-out: Tumor:serum ratio
Method: Serum samples were collected at 7 and 12 hours post dose and tumor samples were collected 12 hours post last dose from the twice-daily-treated animals. From once-daily-treated animals, serum samples were collected at 4, 12, and 24 hours post dose and tumor samples were collected at 24 hours post last dose.

[5] = Serum and tumor levels after a single oral dose in male OCI-LY3 tumor-bearing NSG mice; format: in vivo; details: 100 mg/kg single oral dose, PEG400 solution, mean (SD)
Method: For PD, when tumors reached 550-750 mm^3 animals were assigned randomly into the treatment groups and treated as presented in Table 5. Dose volumes were adjusted to individual body weights at 10 mL/kg. For both PD studies, serum was collected at 2 and 12 hours post treatment from the retro-orbital sinus. At 24 hours post treatment, animals were bled via decapitation and tumors were excised, weighed, and divided for bioanalysis and ex vivo PD analysis. Blood was centrifuged at 10,000 rpm and serum divided for bioanalysis and PD analysis.
Serum samples were collected at 2, 12, and 24 hours post dose and tumor samples were collected 24 hours post dose.

[6] = test system: IL-10 secretion by OCI-LY3 ABC-DLBCL cells; assay: IL-10 secretion assay (MesoScale Discovery); format: cell-based; details: Homo sapiens; supernatants of OCI-LY3 cells, 16 independent experiments
Method: NF-κB signaling regulates the secretion of multiple cytokines, including interleukin (IL)-6 and IL-10. Libermann T A et al. Mol Cell Biol. 1990; 10(6):3155-3162; and Cao S, et al. J Biol Chem. 2006; 281(36):26041-26050. Secretion of the cytokines IL-6 and IL-10 by OCI-LY3 ABC-DLBCL cells was measured using a MesoScale Discovery (MSD) assay.

[7] = male, plasma, Monkey, cynomolgus, 3M, 1 mg/kg IV in 70% PEG400, mean
[8] = male, plasma, Mouse, CD-1, 3M, 1 mg/kg IV in 70% PEG400, mean
[9] = male, plasma, Mouse, NSG, 3M, 1 mg/kg IV in 70% PEG400, mean

**Q.** For `O=C(Nc1ccnc(C(F)(F)F)c1)c1cnn(-c2cccc3c(=O)[nH]ccc23)c1C(F)(F)F` [Compound A, 1-(1-oxo-1,2-dihydroisoquinolin-5-yl)-5-(trifluoromethyl)-N-[2-(trifluoromethyl)pyridin-4-yl]-1H-pyrazole-4-carboxamide], which AUC(0-inf) (Single IV dose plasma PK [1]; [7]) is on record?
**A.** 16400 ng·h/mL

**Q.** And the C0 (Single IV dose plasma PK [1]; [7])?
**A.** 1840 ng/mL

**Q.** And the clearance (Single IV dose plasma PK [1]; [7])?
**A.** 1.12 mL/min/kg

**Q.** And the half-life (Single IV dose plasma PK [1]; [7])?
**A.** 11.9 h

**Q.** What about the Vd (Single IV dose plasma PK [1]; male, plasma, Monkey, cynomolgus, 3M, 1 mg/kg IV in 70% PEG400, mean, read-out: Vdss) of the same compound?
**A.** 0.748 L/kg

**Q.** What about the “CL as fraction of liver blood flow (LBF)” value (Single IV dose plasma PK [1]; monkey, LBF 43.6 mL/min/kg) of the same compound?
**A.** 1.7%

**Q.** And the Vd (Single IV dose plasma PK [2]; CD-1 and NSG (mouse), Sprague-Dawley (rat), beagle (dog), plasma, similar across all species (mouse, rat, monkey, dog), IV 1 mg/kg, read-out: apparent volume of distribution at steady state)?
**A.** ~1 L/kg

**Q.** And the AUC(0-inf) (Single IV dose plasma PK [2]; [8])?
**A.** 12200 ng·h/mL

**Q.** And the C0 (Single IV dose plasma PK [2]; [8])?
**A.** 940 ng/mL

**Q.** What about the clearance (Single IV dose plasma PK [2]; [8]) of the same compound?
**A.** 1.3 mL/min/kg

**Q.** What about the Vd (Single IV dose plasma PK [2]; male, plasma, Mouse, CD-1, 3M, 1 mg/kg IV in 70% PEG400, mean, read-out: Vdss) of the same compound?
**A.** 1.4 L/kg

**Q.** And the AUC(0-inf) (Single IV dose plasma PK [2]; [9])?
**A.** 5490 ng·h/mL

**Q.** What about the C0 (Single IV dose plasma PK [2]; [9]) of the same compound?
**A.** 1130 ng/mL

**Q.** What about the clearance (Single IV dose plasma PK [2]; [9]) of the same compound?
**A.** 3.04 mL/min/kg

**Q.** What about the half-life (Single IV dose plasma PK [2]; [9]) of the same compound?
**A.** 5.28 h

**Q.** What about the Vd (Single IV dose plasma PK [2]; male, plasma, Mouse, NSG, 3M, 1 mg/kg IV in 70% PEG400, mean, read-out: Vdss) of the same compound?
**A.** 1.23 L/kg

**Q.** What about the “CL as fraction of liver blood flow (LBF)” value (Single IV dose plasma PK [2]; mouse, LBF 90 mL/min/kg) of the same compound?
**A.** 1.4%

**Q.** What about the “generation of Treg cells following CD3/28 stimulation” value ([3]; 4 days, CyTOF) of the same compound?
**A.** dose-dependently inhibited the generation of CD4^+CD25^+CD1271^lowFoxP3^hi cells

**Q.** What about the “number of CD8+ T cells” value ([3]; 4 days, CyTOF) of the same compound?
**A.** no strong effect on the number of CD8^+ T cells was observed

**Q.** What about the “expression of TIM3” value ([3]; CD4+ and CD8+ T cells, CyTOF) of the same compound?
**A.** No decrease

**Q.** What about the “expression of exhaustion markers PD-1, CTLA4, LAG3” value ([3]; CD8+ T cells, CyTOF) of the same compound?
**A.** decreased on CD8^+ T cells

**Q.** What about the “activation of CD8+ T cells” value ([3]; CD69+CD25+ cells following CD3/28 stimulation) of the same compound?
**A.** reduced

**Q.** What about the Serum concentration ([4]; 10 mg/kg twice daily PO, Day 5 eight doses given, 12 h post dose (trough)) of the same compound?
**A.** 2,202 (313) ng/ml

**Q.** And the concentration at 7 h ([4]; serum, oral, 10 mg/kg, 10 mg/kg twice daily PO, Day 1 following first dose)?
**A.** 3260 ng/mL

**Q.** And the concentration at 12 h ([4]; serum, oral, 10 mg/kg, 10 mg/kg twice daily PO, Day 1 following first dose, 12 h post dose, read-out: Serum concentration)?
**A.** 2440 ng/mL

**Q.** What about the concentration at 7 h ([4]; serum, oral, 10 mg/kg, 10 mg/kg twice daily PO, Day 4 seven doses given) of the same compound?
**A.** 3760 ng/mL

**Q.** And the concentration at 12 h ([4]; serum, oral, 10 mg/kg, 10 mg/kg twice daily PO, Day 5 eight doses given, 12 h post dose (trough), read-out: Serum concentration)?
**A.** 2200 ng/mL

**Q.** And the concentration at 7 h ([4]; serum, oral, 30 mg/kg, 30 mg/kg twice daily PO, Day 1 following first dose)?
**A.** 9970 ng/mL

**Q.** And the concentration at 12 h ([4]; serum, oral, 30 mg/kg, 30 mg/kg twice daily PO, Day 1 following first dose, 12 h post dose, read-out: Serum concentration)?
**A.** 9000 ng/mL

**Q.** And the concentration at 7 h ([4]; serum, oral, 30 mg/kg, 30 mg/kg twice daily PO, Day 4 seven doses given)?
**A.** 7420 ng/mL

**Q.** And the concentration at 12 h ([4]; serum, oral, 30 mg/kg, 30 mg/kg twice daily PO, Day 5 eight doses given, 12 h post dose, read-out: Serum concentration)?
**A.** 3890 ng/mL

**Q.** What about the concentration at 7 h ([4]; serum, oral, 100 mg/kg, 100 mg/kg twice daily PO, Day 1 following first dose) of the same compound?
**A.** 16200 ng/mL

**Q.** And the concentration at 12 h ([4]; serum, oral, 100 mg/kg, 100 mg/kg twice daily PO, Day 1 following first dose, 12 h post dose, read-out: Serum concentration)?
**A.** 13300 ng/mL

**Q.** And the concentration at 12 h ([4]; serum, oral, 100 mg/kg, 100 mg/kg twice daily PO, Day 5 eight doses given, 12 h post dose, read-out: Serum concentration)?
**A.** 6910 ng/mL

**Q.** And the concentration at 4 h ([4]; serum, oral, once daily PO, dose not printed in Table 8 (first group; b301: 60 and 100 mg/kg), Day 1, 4 h post dose)?
**A.** 15000 ng/mL

**Q.** And the concentration at 4 h ([4]; serum, oral, once daily PO, dose not printed in Table 8 (second group; b301: 60 and 100 mg/kg), Day 1, 4 h post dose)?
**A.** 18100 ng/mL

**Q.** What about the concentration at 24 h ([4]; serum, po, once daily PO, dose not given (first group), Day 1, 24 h post dose, read-out: Serum concentration) of the same compound?
**A.** 2060 ng/mL

**Q.** And the concentration at 4 h ([4]; serum, po, once daily PO, dose not given (first group), Day 4, 4 h post dose)?
**A.** 9850 ng/mL

**Q.** And the concentration at 12 h ([4]; serum, po, once daily PO, dose not given (first group), Day 4, 12 h post dose, read-out: Serum concentration)?
**A.** 8680 ng/mL

**Q.** What about the concentration at 24 h ([4]; serum, po, once daily PO, dose not given (first group), Day 4, 24 h post dose, read-out: Serum concentration) of the same compound?
**A.** 1380 ng/mL

**Q.** What about the concentration at 24 h ([4]; serum, po, once daily PO, dose not given (second group), Day 1, 24 h post dose, read-out: Serum concentration) of the same compound?
**A.** 1970 ng/mL

**Q.** And the concentration at 4 h ([4]; serum, po, once daily PO, dose not given (second group), Day 4, 4 h post dose)?
**A.** 12600 ng/mL

**Q.** And the concentration at 12 h ([4]; serum, po, once daily PO, dose not given (second group), Day 4, 12 h post dose, read-out: Serum concentration)?
**A.** 11000 ng/mL

**Q.** What about the concentration at 24 h ([4]; serum, po, once daily PO, dose not given (second group), Day 4, 24 h post dose, read-out: Serum concentration) of the same compound?
**A.** 2800 ng/mL

**Q.** What about the Kp at 12 h ([4]; tumor and serum, 10 mg/kg twice daily PO) of the same compound?
**A.** 1

**Q.** And the Kp at 12 h ([4]; tumor and serum, 30 mg/kg twice daily PO)?
**A.** 1.3

**Q.** What about the Kp at 12 h ([4]; tumor and serum, 100 mg/kg twice daily PO) of the same compound?
**A.** 1.3

**Q.** And the Kp at 24 h ([4]; tumor and serum, once daily PO, dose not given (first group), Day 4, 24 h post dose)?
**A.** 1.9

**Q.** And the concentration at 12 h ([4]; tumor, oral, 10 mg/kg, 10 mg/kg twice daily PO, Day 5 eight doses given, 12 h post dose, read-out: Tumor concentration)?
**A.** 2160 ng/g

**Q.** What about the concentration at 12 h ([4]; tumor, oral, 30 mg/kg, 30 mg/kg twice daily PO, Day 5 eight doses given, 12 h post dose, read-out: Tumor concentration) of the same compound?
**A.** 5050 ng/g

**Q.** What about the concentration at 12 h ([4]; tumor, oral, 100 mg/kg, 100 mg/kg twice daily PO, Day 5 eight doses given, 12 h post dose, read-out: Tumor concentration) of the same compound?
**A.** 8830 ng/g

**Q.** What about the concentration at 24 h ([4]; tumor, po, once daily PO, dose not given (first group), Day 4, 24 h post dose, read-out: Tumor concentration) of the same compound?
**A.** 2460 ng/g

**Q.** And the concentration at 24 h ([4]; tumor, po, once daily PO, dose not given (second group), Day 4, 24 h post dose, read-out: Tumor concentration)?
**A.** 4300 ng/g

**Q.** And the Kp at 24 h ([4]; tumor/serum, once daily PO, dose not given (second group), Day 4, 24 h post dose)?
**A.** 1.6

**Q.** What about the Serum concentration ([5]; 12 h post dose) of the same compound?
**A.** 4,118 (1,322 ng/ml

**Q.** What about the Tumor concentration ([5]; 24 h post dose, N = 4) of the same compound?
**A.** 1,180 (223)^b ng/g

**Q.** And the concentration at 2 h ([5]; male, NSG, mouse, serum, 2 h post dose)?
**A.** 3730 ng/mL

**Q.** What about the concentration at 24 h ([5]; male, NSG, mouse, serum, 24 h post dose) of the same compound?
**A.** 1060 ng/mL

**Q.** What about the IC50 [6] of the same compound?
**A.** 77 ± 24 nM

Reference: patent US20240299376A1, “METHOD OF TREATING A CONDITION USING A […] EFFECTIVE DOSE OF 1-(1-OXO-1,2-DIHYDROISOQUINOLIN-5-YL)-5-(TRIFLUOROMETHYL)-N-(2-(TRIFLUOROMETHYL)PYRIDIN-4-YL)-1H-PYRAZOLE-4-CARBOXAMIDE” (Janssen Pharmaceutica NV, priority 2021, published 2024)
